Consider 25 compounds from ChEMBL document CHEMBL1201862, “PubChem BioAssay data set” (2004).

In general, EC50 refers to the concentration that produces a half-maximal response. The term IC50 denotes the concentration at which inhibition is half-maximal. As a reminder, the AC50 is the midpoint of the concentration-response curve, whichever way the signal moves. The term CC50 denotes the concentration that lowers cell viability or growth by half.

Activity calls are given as the source filed them.

Test [1] in a line: inhibitors of firefly luciferase expression or activity, dose response, H4 neuroglioma cells, luminescence (AID 1990). The class given is functional, cell-based.
Test [2] is described as follows: Luminescence Cell-Based Dose Response HTS to Identify Inhibitors of 5'UTR Stem-Loop Driven Prion Protein mRNA Translation in H4 Neuroglioblastoma Cells. [Related pubchem assays: 1827 (Project Summary), 1813 (Primary HTS)]. The class given is functional.
The nature of test [3]: inhibitors of SNCA 5'UTR-driven reporter translation, confirmation, H4 neuroglioma cells, luminescence (AID 1988). The class given is functional, cell-based.
The next test has as its target T1, Protein skinhead-1 (Caenorhabditis elegans, UniProt P34707).
T1 sequence (P34707 whole entry): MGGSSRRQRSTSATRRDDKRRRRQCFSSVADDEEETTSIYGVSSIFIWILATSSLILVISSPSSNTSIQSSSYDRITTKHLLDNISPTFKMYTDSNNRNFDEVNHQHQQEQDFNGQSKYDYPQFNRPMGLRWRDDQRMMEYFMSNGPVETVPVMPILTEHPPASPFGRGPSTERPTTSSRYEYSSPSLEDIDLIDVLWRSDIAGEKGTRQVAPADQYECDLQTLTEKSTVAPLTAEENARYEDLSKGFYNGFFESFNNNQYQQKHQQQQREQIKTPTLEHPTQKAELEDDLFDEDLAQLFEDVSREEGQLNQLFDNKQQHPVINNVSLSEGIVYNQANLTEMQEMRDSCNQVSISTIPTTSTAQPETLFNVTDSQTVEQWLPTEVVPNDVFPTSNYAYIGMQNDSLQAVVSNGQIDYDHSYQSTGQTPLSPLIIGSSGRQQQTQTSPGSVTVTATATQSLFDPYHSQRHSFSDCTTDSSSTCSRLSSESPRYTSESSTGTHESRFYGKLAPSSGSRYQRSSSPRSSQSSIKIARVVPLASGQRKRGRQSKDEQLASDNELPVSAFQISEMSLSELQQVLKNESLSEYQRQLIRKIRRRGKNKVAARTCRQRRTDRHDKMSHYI
The class given is functional.

Test [4] has as its target T2, Heat shock factor protein 1 (Mus musculus, UniProt P38532).
T2 sequence (P38532 whole entry): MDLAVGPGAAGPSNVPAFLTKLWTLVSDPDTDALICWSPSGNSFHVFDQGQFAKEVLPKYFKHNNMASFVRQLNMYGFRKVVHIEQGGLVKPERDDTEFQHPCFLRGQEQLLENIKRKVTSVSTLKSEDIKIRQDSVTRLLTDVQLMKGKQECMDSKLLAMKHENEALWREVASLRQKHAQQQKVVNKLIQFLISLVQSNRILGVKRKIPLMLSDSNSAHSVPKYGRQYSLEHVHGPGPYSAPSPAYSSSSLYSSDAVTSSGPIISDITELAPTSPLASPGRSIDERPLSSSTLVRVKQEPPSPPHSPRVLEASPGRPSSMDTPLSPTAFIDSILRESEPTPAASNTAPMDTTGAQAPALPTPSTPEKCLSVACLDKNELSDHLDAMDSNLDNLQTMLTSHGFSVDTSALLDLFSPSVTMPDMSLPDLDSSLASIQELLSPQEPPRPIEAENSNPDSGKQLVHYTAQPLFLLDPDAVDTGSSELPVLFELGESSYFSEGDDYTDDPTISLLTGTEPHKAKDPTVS
The experiment in a line: HSF1 potentiators in luciferase reporter cells, confirmation, cell-based, NIH3T3, luminescence, dose retest (AID 435004).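 Further: stress induced by proteasome inhibitor MG132 added 30 min after compound; luciferase reporter driven by HSF1 response element in NIH3T3 cells; actives raise luminescence as potentiators of the MG132 stress response.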 Type of test: functional.

In test [5] the target is FAD-linked sulfhydryl oxidase ALR (Homo sapiens, UniProt P55789). The experiment in a line: inhibitors of human ALR sulfhydryl oxidase, dose response, biochemical, H2O2 detection, luminescence, cherry-pick (AID 493248).
The nature of test [6]: HEp-2 cell cytotoxicity, dose response, cytotoxicity control for RSV inhibitor project, HTS (AID 2410). Type of test: functional. Conditions: human respiratory syncytial virus.
The target of test [7] is Heat shock protein HSP 90-alpha (Homo sapiens, UniProt P07900). The class given is functional, organism-based.
Test [8] is described as follows: growth suppression of PTEN-null colon cells, dose response, cell-based, HCT116 PTEN knockout (AID 1047).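 Further: HCT116 colon tumor cells with PTEN knocked out; cells exposed to compound for 60 hours before readout; potency for loss of cell viability measured by luminescence.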 The class given is functional.
Test [9] in a line: growth suppression of beta-catenin-knockout colon cells, dose response, cell-based, HCT116, human colon tumor (AID 1045).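 Further: HCT116 colon tumor cells with beta catenin knocked out; cells exposed to compound for 60 hours.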 The class given is functional.
Test [10] is described as follows: control 3'UTR Renilla luciferase suppression, dose response, counter-screen for Shn3 inhibitor project, cell-based, Clone20-Shn3RL, cherry-picked (AID 624133). Type of test: functional.
The nature of test [11]: inhibitors of intracellular T. cruzi replication, confirmation, NIH3T3 host cells, beta-gal luminescence (AID 2044).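 Further: intracellular parasites grown in NIH/3T3 mouse fibroblasts as host cells; luminescent beta-galactosidase reporter signal from transgenic T. cruzi replicating inside host cells; inhibitors lower the luminescence signal.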 The class given is functional, cell-based.
A short description of test [12]: cytotoxicity toward NIH3T3 fibroblasts, dose response, counter-screen, cell-based, ATP luminescence, mouse fibroblasts (AID 2010).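 Further: cells exposed to compound for about 90 hours before reading.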 The class given is functional.

Chain of FAD-linked sulfhydryl oxidase ALR (P55789 whole entry): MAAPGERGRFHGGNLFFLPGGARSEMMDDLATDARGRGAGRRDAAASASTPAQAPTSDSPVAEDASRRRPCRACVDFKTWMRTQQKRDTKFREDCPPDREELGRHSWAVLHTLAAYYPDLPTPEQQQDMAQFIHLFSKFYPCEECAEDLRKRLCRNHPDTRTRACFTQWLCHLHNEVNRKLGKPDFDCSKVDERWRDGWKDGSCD

For the compound `Clc1ccc(Cn2cc(/C=N/n3cnnc3)c3ccccc32)cc1`, the figures for the EC50 in test [1], in test [2] and in test [3] were 14.6 µM (active), > 120 µM (not active) and 13.1 µM (active), respectively. As for `O=C(Nc1ccc2c(c1)CN(Cc1ccco1)CC2)C1CCCO1` (centres undefined), at Protein skinhead-1, the IC50 is > 100 µM (inactive).

`COc1ccc(-c2cc(=O)oc3cc(OCC(=O)N(C)C)ccc23)cc1`: on Protein skinhead-1, the IC50 was > 100 µM (inactive). For `Cc1ccc(NC2c3ncccc3C(=O)N2C2CCCCC2)cc1` (centres undefined), in [4], the EC50 was > 260 µM (inactive). Besides, the AC50 in test [5] was 2.07 µM (active).

Consider `CC(=C/c1ccccc1)/C=N/n1cnnc1`, for which the values for the EC50 in test [1], in [2] and in [3] were 11 µM (active), 20.4 µM (active) and 13.5 µM (active), respectively. As to `Cc1ccc(C2=NC(C)(C)N=C2SCC(=O)Nc2ccc(Cl)cc2)cc1`, the CC50 in test [6] was 30.5 µM (active). Besides, in test [7], the AC50 was 15.1 µM (active). Regarding `Cc1cc(S(=O)(=O)NCc2ccccc2)ccc1OCC(=O)Nc1cccc([N+](=O)[O-])c1`, the EC50 in test [8] was 13 µM (active); in [9], 14.9 µM (active). Take `O=C1/C(=C/c2ccccc2)CCCc2ccccc21`: the IC50 at Protein skinhead-1 was 17.9 µM (active).

On to `COc1cccc(-c2noc(-c3ccoc3C)n2)c1`, for which the IC50 at Protein skinhead-1 was 86.4 µM (inactive). Take `Cc1ccc(C)c(Nc2nc3ccc(C)cc3n3cnnc23)c1`: the EC50 was 14.9 µM (active) in [1], > 120 µM (not active) in test [2] and > 120 µM (not active) in test [3]. `Cc1cccc(-[n+]2c(-c3cccc(Br)c3)[nH]c3nc4ccccc4nc32)c1`: the EC50 in test [1] is 13.2 µM (active); in test [2] it was 13.7 µM (active); in test [3] it was 10.5 µM (active).

Turning to `Nc1nnc(SCC(=O)N2CCN(c3cccc(Cl)c3)CC2)n1-c1ccccc1`, the IC50 at Protein skinhead-1 is > 100 µM (inactive). As for `CN(CC(=O)NCc1ccc2c(c1)OCO2)S(=O)(=O)c1ccc(Br)s1`, the AC50 in [10] is 28.2 µM (active). Take `CN(CCCN1CCOCC1)C(=O)c1cc(COc2cccc(C(F)(F)F)c2)on1`: the IC50 on Protein skinhead-1 is > 100 µM (inactive). For the compound `O=S(=O)(NC1CCCCCC1)c1ccc(Br)s1`, the AC50 in test [7] was 17.2 µM (active). With `Cc1ccc(CNC(=O)CSc2ccsc2[N+](=O)[O-])cc1`, the EC50 in [4] is 31.5 µM (active). Take `COc1ccc(-c2csc(/C(C#N)=C/Nc3cc4oc5ccccc5c4cc3OC)n2)cc1`: the EC50 in [1] is > 120 µM (not active); in test [2] it was 91.7 µM (active); in test [3] it was > 120 µM (not active). As for `CC(=O)Nc1ccc(S(=O)(=O)NCc2ccc3c(c2)cc(C)n3C)cc1`, the IC50 on Protein skinhead-1 was > 100 µM (inactive). For `O=C(Nc1ccc(F)cc1)C1CCN(c2ncnc3c2nc2n3CCCCC2)CC1`, the EC50 was 17 µM (active) in test [1], 16.9 µM (active) in test [2] and 15.8 µM (active) in [3]. As to `Cc1ccc(C)c(NC(=O)/C(C#N)=C/c2ccc[nH]2)c1`, at Protein skinhead-1, the IC50 is > 100 µM (inactive).

Consider `CCOc1cc(CNCCSc2nnnn2C)cc(Br)c1OCc1ccccc1F`, for which the EC50 in [11] is 2.13 µM (active); in [12], > 60 µM (not active). Further, the IC50 at Protein skinhead-1 was 24.1 µM (active). As to `O=C(CN1CCCC1)Nc1sc2c(c1C(=O)Nc1ccc(Br)cc1)CCC2`, on Protein skinhead-1, the IC50 is > 100 µM (inactive). In the case of `C=CCn1c(COc2ccc(CC)cc2)nnc1SC/C(O)=C(\C#N)c1nc2ccccc2[nH]1`, the EC50 in [4] was > 260 µM (inactive). On the same count and under the same terms, as for `COc1cccc(C2C([N+](=O)[O-])=C(N)Oc3c2c(=O)oc2ccccc32)c1` (centres undefined), the figure is > 260 µM (inactive). `COc1ccc(C2=Nn3c(nnc3-c3ccccc3)SC2)cc1OC`: the EC50 is 54.9 µM (active) in test [1], > 120 µM (not active) in test [2] and 0.318 µM (active) in [3].
